This passage reports Michaelis constant results from article PMC6006479, “Minimization of dynamic effects in the evolution of dihydrofolate reductase” (Chemical Science, 2016).

The target in this test is T1, MpDHFR (Moritella profunda, UniProt Q70YQ6).
T1 construct: gene dyrA; purified recombinant enzyme made in minimal medium; 'light' form with natural abundance isotopes; construct details only in supplement; monomeric
The test can be described thus: steady-state kinetics. The note with it: light (natural abundance) enzyme, pH 7.0. Format: biochemical.

T1 sequence (Q70YQ6 entry or part of it): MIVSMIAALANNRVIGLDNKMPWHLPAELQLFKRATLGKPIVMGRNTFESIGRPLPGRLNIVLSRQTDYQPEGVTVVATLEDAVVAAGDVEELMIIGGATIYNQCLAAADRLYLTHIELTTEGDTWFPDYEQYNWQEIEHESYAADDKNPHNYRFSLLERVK

In the case of `Nc1nc2c(c(=O)[nH]1)N=C(CNc1ccc(C(=O)N[C@@H](CCC(=O)O)C(=O)O)cc1)CN2` [DHF], the Michaelis constant result (co-substrate NADPH) was “The Michaelis constants for NADPH and DHF are essentially the same for all these enzymes”. For the compound `NC(=O)C1=CN([C@@H]2O[C@H](COP(=O)(O)OP(=O)(O)OC[C@H]3O[C@@H](n4cnc5c(N)ncnc54)[C@H](OP(=O)(O)O)[C@@H]3O)[C@@H](O)[C@H]2O)C=CC1` [NADPH], the Michaelis constant result (co-substrate dihydrofolate) is “The Michaelis constants for NADPH and DHF are essentially the same for all these enzymes”.
